Results on one molecule are retold here after paper PMC10349806 (Nature Communications, 2023).

“And” between values parts separate entries of the source, which are not always exact repeats. Equal values may be shown once.

This test deals with T1, PfCRT variant CD2 (D24A, D57A, Y179A, F235A, D241A, E406A, D419A) (Plasmodium falciparum, UniProt Q9N623, A220S/D241A/D24A/D419A/D57A/E406A/F235A/I356T/K76T/M74I/N326S/N75E/Q271E/R371I/Y179A).
T1 sequence (Q9N623 1-424 D24A/D57A/M74I/N75E/K76T/Y179A/A220S/F235A/D241A/Q271E/N326S/I356T/R371I/E406A/D419A): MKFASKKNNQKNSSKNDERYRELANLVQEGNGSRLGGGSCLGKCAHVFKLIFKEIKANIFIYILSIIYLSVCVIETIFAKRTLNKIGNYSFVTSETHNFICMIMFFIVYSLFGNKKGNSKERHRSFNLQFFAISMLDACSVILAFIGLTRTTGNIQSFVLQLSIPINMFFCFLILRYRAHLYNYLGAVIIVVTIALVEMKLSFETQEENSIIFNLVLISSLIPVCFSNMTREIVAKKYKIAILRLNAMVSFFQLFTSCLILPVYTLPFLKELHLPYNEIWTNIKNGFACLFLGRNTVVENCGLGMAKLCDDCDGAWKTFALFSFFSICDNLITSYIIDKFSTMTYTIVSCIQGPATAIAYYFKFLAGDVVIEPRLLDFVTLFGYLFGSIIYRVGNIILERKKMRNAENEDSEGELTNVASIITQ
Nature of the test: CQ uptake assay, oocytes expressing CD2. The class given is cell-based. The procedure:
Site-directed mutagenesis of PfCRT^Dd2 was performed as described using the megaprimer method with overlap extension[21],[54]. The primer pairs used are listed in Supplementary Table 6. Please note that a codon-optimized and oocyte-adapted version of PfCRT^Dd2 was used[22] (Supplementary Fig. 16). The resulting DNA fragment was cloned into the SP64T expression vector and verified by sequencing.
Oocytes were obtained as described previously. Briefly, adult (>2 years old) female X. laevis frogs (NASCO) were anesthetized in a cooled solution of ethyl 3-amino benzoate methanesulfonate (0.1%, w/v), followed by a surgical removal of parts of the ovary. The ovary lobes were carefully dissected and small pieces of oocytes were incubated in Ca^2+-free ND96 buffer (96 mM NaCl, 2 mM KCl, 1 mM MgCl2 buffered with 5 mM HEPES/NaOH, pH 7.5) supplemented with collagenase D (0.1%, w/v; Roche), BSA (0.5%, w/v), and 9 mm Na2HPO4 at 18 °C for 14-16 h while gentle shaking. After incubation, the oocytes were carefully washed several times with ND96 buffer (96 mM NaCl, 2 mM KCl, 1.8 mM CaCl2, 1 mM MgCl2 buffered with 5 mM HEPES/NaOH, pH 7.5) supplemented with 100 mg l^−1 gentamycin). Defolliculated and healthy-looking stage V-VI oocytes were manually selected for RNA microinjection. The RNA was generated as following: The codon-optimized sequences of PfCRT variants were cloned into the pSP64T expression vector. After vector linearization using the restriction endonucleases BamHI or SalI (New England Biolabs), transcription was performed using the in vitro SP6 mMessage mMachine Kit (Ambion)[34]. The obtained RNA was kept at −80 °C and diluted with nuclease-free water to a concentration of 0.6 μg μl^−1. Precision-bore glass capillary tubes (3.5-inch glass capillaries; Drummond Scientific Co.) were pulled on a vertical puller (P-87 Flaming/Brown micropipette puller, Sutter Instrument Co.), graduated, and placed on a microinjector (Nanoject II Auto-Nanoliter Injector, Drummond Scientific Co.). 50 nl of nuclease-free water alone (control oocytes) or 50 nl of 0.6 μg μl^−1 RNA were injected under stereomicroscopic control. Injected oocytes were incubated for 46–72 h at 18 °C with twice-daily buffer changes before usage in experiments.
Drug uptake assays were performed as described previously[21],[22],[24],[34]. […] The direction of radio-labeled drug transport is here from the mostly acidic extracellular solution (pH 4.5 or 6.0, as indicated) into the oocyte cytosol (pH ∼ 7.2), which corresponds to the efflux of drug from the acidic digestive vacuole (pH 5.2) into the parasite cytoplasm (pH 7.2). The topology of PfCRT in the oolemma is such that both the N- and C-terminus face the extracellular milieu[3],[22]. In the parasite, the N- and C-terminus face the lumen of the digestive vacuole. CQ uptake kinetics were performed by incubating oocytes in ND96 buffer adjusted to a pH of 4.5, 5.0, 5.5, or 6.0 and supplemented with 50 nM [^3H]CQ and one of 7 different CQ concentrations (10 µM, 50 µM, 100 µM, 200 µM, 300 µM, 400 µM, 500 µM CQ). The reaction was stopped at the 60 min time point, which is in the linear uptake range[22],[34] (Supplementary Fig. 17). For determination of the amount of drug uptake for each oocyte, the reaction medium was removed and the oocytes were washed three times with 2 ml of ice-cold ND96 buffer. Each oocyte was individually transferred to a scintillation vial containing 5% sodium dodecyl sulfate (200 μl) for lysis. The radioactivity of each sample was measured using a liquid scintillation analyzer Tri-Carb 4910 TR (PerkinElmer). Oocytes that were injected with water instead of RNA were analyzed in parallel, representing the uptake of a drug by diffusion and/or endogenous permeation pathways. The resulting value represents the “background“ level of drug accumulation in oocytes (in-depth discussion in[22]). […]

Consider `CCN(CC)CCCC(C)Nc1ccnc2cc(Cl)ccc12` (stereo not drawn) [CQ, chloroquine], for which, where the note is “CD2, 50 µM CQ, 1 h, mean ± SEM”, the “Activity at pH 4.5” value is recorded as 1.26 ± 0.05 pmol h-1 oocyte-1 and the “Activity at pH 6.0” value worked out at 2.31 ± 0.23 pmol h-1 oocyte-1. Besides, the R-value (CD2, CQ transport at pH 4.5 / pH 6.0) stood at 0.56 ± 0.05. For the same molecule, the “CD2 transport activity pH 4.5” value (pH 4.5, single replicates, Fig 1d left) was 1.18 pmol oocyte-1 h-1 and 1.21 pmol oocyte-1 h-1 and 1.38 pmol oocyte-1 h-1. For the same molecule, the “CD2 R-value” (pH 4.5 vs pH 6.0, Fig 1d left) was 0.68 and 0.46 and 0.54. Under “pH 6.0, single replicates, Fig 1d left”, the “CD2 transport activity pH 6.0” value is 1.74 pmol oocyte-1 h-1 and 2.62 pmol oocyte-1 h-1 and 2.56 pmol oocyte-1 h-1.
